Measured values from PubChem BioAssay AID330 (DTP/NCI, 2004).
Several values for one entry are separate records, joined by “and”; a condition that tells them apart may be missing. Identical values can stand only once. Toxic doses and inconclusive results are not listed. The calls were made as follows: active = survival T/C of 150% or more; inactive = T/C below 125% in these data.

Test system: P388 leukemia ip, CD2F1 mice, survival T/C
Experiment: NCI In Vivo Anticancer Drug Screen. Data for tumor model P388 Leukemia (intraperitoneal) in CD2F1 (CDF1) mice
Conditions: endpoint: median survival time, higher = longer survival
Procedure, shortened: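 Mice carrying the transplanted tumor received test compound or vehicle. Survival was recorded in each group, and the value is the treated-group measurement divided by that of the vehicle-treated control group.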

[1] = dose: 100.0 mg/kg/injection, schedule: Q04DX003 (ip), vehicle: saline with Tween-80
[2] = dose: 200.0 mg/kg/injection, schedule: Q04DX003 (ip), vehicle: saline with Tween-80
[3] = dose: 60.0 mg/kg/injection, schedule: Q01DX005 (ip), vehicle: saline
[4] = dose: 120.0 mg/kg/injection, schedule: Q01DX005 (ip), vehicle: saline
[5] = dose: 50.0 mg/kg/injection, schedule: Q01DX009 (ip), vehicle: saline
[6] = dose: 100.0 mg/kg/injection, schedule: Q01DX009 (ip), vehicle: saline
[7] = dose: 200.0 mg/kg/injection, schedule: Q01DX009 (ip), vehicle: saline
[8] = dose: 50.0 mg/kg/injection, schedule: Q01DX005 (ip), vehicle: saline with Tween-80
[9] = dose: 100.0 mg/kg/injection, schedule: Q01DX005 (ip), vehicle: saline with Tween-80
[10] = dose: 200.0 mg/kg/injection, schedule: Q01DX005 (ip), vehicle: saline with Tween-80
[11] = dose: 60.0 mg/kg/injection, schedule: Q01DX005 (ip), vehicle: saline with Tween-80
[12] = dose: 120.0 mg/kg/injection, schedule: Q01DX005 (ip), vehicle: saline with Tween-80
[13] = dose: 240.0 mg/kg/injection, schedule: Q01DX005 (ip), vehicle: saline with Tween-80
[14] = dose: 25.0 mg/kg/injection, schedule: Q01DX005 (ip), vehicle: saline with Tween-80
[15] = dose: 12.5 mg/kg/injection, schedule: Q01DX005 (ip), vehicle: saline with Tween-80

Measured: T/C

Cc1ccc(NC(=O)C#N)cc1
inactive: dose: 15.0 mg/kg/injection, schedule: Q01DX005 (ip), vehicle: saline with Tween-80 107 % of control | dose: 30.0 mg/kg/injection, schedule: Q01DX005 (ip), vehicle: saline with Tween-80 96 % of control

S=c1nc[nH]c2c1ncn2C1C=CCCC1 (configuration not stated)
inactive: [1] 90 % of control | dose: 176.0 mg/kg/injection, schedule: Q01DX009 (ip), vehicle: saline with Tween-80 100 % of control | [2] 90 % of control | dose: 264.0 mg/kg/injection, schedule: Q01DX009 (ip), vehicle: saline with Tween-80 95 % of control | dose: 400.0 mg/kg/injection, schedule: Q01DX009 (ip), vehicle: saline with Tween-80 118 % of control | dose: 400.0 mg/kg/injection, schedule: Q04DX003 (ip), vehicle: saline with Tween-80 90 % of control

COC1=CC(=O)C=C(OC)C1=O
inactive: dose: 0.5 mg/kg/injection, schedule: Q01DX009 (ip), vehicle: saline with Tween-80 109 % of control | dose: 1.0 mg/kg/injection, schedule: Q01DX009 (ip), vehicle: saline with Tween-80 113 % of control | dose: 2.0 mg/kg/injection, schedule: Q01DX009 (ip), vehicle: saline with Tween-80 119 % of control | dose: 4.0 mg/kg/injection, schedule: Q01DX009 (ip), vehicle: saline with Tween-80 111 % of control

CCOC(C#CC(C)=O)OCC
inactive: [3] 106 % of control | [4] 103 % of control | dose: 240.0 mg/kg/injection, schedule: Q01DX005 (ip), vehicle: saline 103 % of control

CC[N+](CC)(CC)CCOc1nc(OCC[N+](CC)(CC)CC)nc(OCC[N+](CC)(CC)CC)n1
inactive: dose: 6.25 mg/kg/injection, schedule: Q01DX009 (ip), vehicle: saline 100 % of control | dose: 12.5 mg/kg/injection, schedule: Q01DX009 (ip), vehicle: saline 100 % of control | dose: 25.0 mg/kg/injection, schedule: Q01DX009 (ip), vehicle: saline 100 % of control

CCOCC(=O)OC
inactive: [5] 97 % of control | [6] 95 % of control | [7] 100 % of control

CNC(=O)Oc1ccc(Sc2ccc(OC(=O)NC)c(Cl)c2)cc1Cl
inactive: dose: 50.0 mg/kg/injection, schedule: Q01DX005 (ip), vehicle: saline + Tween-80 + alcohol 106 % of control | [8] 99 % of control and 118 % of control | dose: 100.0 mg/kg/injection, schedule: Q01DX005 (ip), vehicle: saline + Tween-80 + alcohol 119 % of control | [9] 102 % of control and 118 % of control | dose: 200.0 mg/kg/injection, schedule: Q01DX005 (ip), vehicle: saline + Tween-80 + alcohol 114 % of control | [10] 117 % of control | dose: 400.0 mg/kg/injection, schedule: Q01DX005 (ip), vehicle: saline + Tween-80 + alcohol 124 % of control

c1cc2n[pH]nc2cn1 (configuration not stated)
inactive: dose: 15.0 mg/kg/injection, schedule: Q01DX005 (ip), vehicle: saline 120 % of control | dose: 30.0 mg/kg/injection, schedule: Q01DX005 (ip), vehicle: saline 107 % of control

CC(C)NC(=O)CN1C(=O)NC(C)(c2ccccc2)C1=O (configuration not stated)
inactive: [11] 101 % of control | [12] 95 % of control | [13] 94 % of control

CC(=O)Nc1cccc(/C=C/C=C/c2ccc([N+](=O)[O-])cc2)c1
inactive: dose: 37.5 mg/kg/injection, schedule: Q01DX001 (ip), vehicle: saline with Tween-80 100 % of control | dose: 75.0 mg/kg/injection, schedule: Q01DX001 (ip), vehicle: saline with Tween-80 95 % of control | dose: 150.0 mg/kg/injection, schedule: Q01DX001 (ip), vehicle: saline with Tween-80 90 % of control

N#Cc1ccc(CC(O)(c2ccccc2)c2ccccc2)cc1
inactive: [5] 99 % of control | [6] 101 % of control | [7] 95 % of control | dose: 400.0 mg/kg/injection, schedule: Q01DX009 (ip), vehicle: saline 87 % of control

COc1ccc(S(=O)(=O)NC(=O)c2ccccc2)cc1
inactive: dose: 50.0 mg/kg/injection, schedule: Q04DX003 (ip), vehicle: saline 103 % of control | dose: 100.0 mg/kg/injection, schedule: Q04DX003 (ip), vehicle: saline 106 % of control and 97 % of control | dose: 200.0 mg/kg/injection, schedule: Q04DX003 (ip), vehicle: saline 98 % of control and 104 % of control | dose: 400.0 mg/kg/injection, schedule: Q04DX003 (ip), vehicle: saline 101 % of control

Cc1cc(C)cc(C(=O)NC(c2ccncc2)C(NC(=O)c2cc(C)cc(C)c2)c2ccncc2)c1 (configuration not stated)
inactive: [14] 92 % of control | [8] 90 % of control | [9] 99 % of control | dose: 400.0 mg/kg/injection, schedule: Q01DX005 (ip), vehicle: saline with Tween-80 92 % of control

O=C1[N-]C(=S)c2cccn21.O=C1[N-]C(=S)c2cccn21.[Pd+2]
inactive: [15] 103 % of control | [14] 103 % of control | [8] 99 % of control | [9] 99 % of control

NC(=O)NN(Cc1ccc(Br)cc1)N=O
inactive: dose: 100.0 mg/kg/injection, schedule: Q01DX001 (ip), vehicle: Klucel (hydroxypropylcellulose) (HPC) 96 % of control | dose: 200.0 mg/kg/injection, schedule: Q01DX001 (ip), vehicle: Klucel (hydroxypropylcellulose) (HPC) 97 % of control | dose: 400.0 mg/kg/injection, schedule: Q01DX001 (ip), vehicle: Klucel (hydroxypropylcellulose) (HPC) 97 % of control

COc1ccc(C(=O)C(CN2CCOCC2)CN2CCOCC2)cc1
inactive: [3] 96 % of control | [4] 111 % of control

CC1=CC(=O)[C@@H](O)[C@]2(C)[C@H]3[C@@]4(O)OC[C@]35[C@H]([C@@H](CO)[C@H]4O)[C@@H](OC3OC(CO)C(O)C(O)C3O)C(=O)O[C@@H]5C[C@@H]12 (some centres not stated)
inactive: dose: 0.25 mg/kg/injection, schedule: Q01DX005 (ip), vehicle: Klucel (hydroxypropylcellulose) (HPC) 99 % of control | dose: 0.5 mg/kg/injection, schedule: Q01DX005 (ip), vehicle: Klucel (hydroxypropylcellulose) (HPC) 99 % of control | dose: 1.0 mg/kg/injection, schedule: Q01DX005 (ip), vehicle: Klucel (hydroxypropylcellulose) (HPC) 98 % of control | dose: 1.87 mg/kg/injection, schedule: Q01DX005 (ip), vehicle: Klucel (hydroxypropylcellulose) (HPC) 96 % of control | dose: 2.0 mg/kg/injection, schedule: Q01DX005 (ip), vehicle: Klucel (hydroxypropylcellulose) (HPC) 100 % of control

OC(Cc1cccnc1)(c1ccccc1)c1cccc2ccccc12 (configuration not stated)
inactive: [1] 90 % of control | [2] 86 % of control

C=CC(=O)Nc1ccc2c(c1)OCCOCCOCCO2
inactive: [8] 101 % of control | [9] 102 % of control | [10] 100 % of control

CCN(CC)CCSC1OC(=O)c2ccccc21 (configuration not stated)
inactive: dose: 1.25 mg/kg/injection, schedule: Q01DX009 (ip), vehicle: saline 104 % of control | dose: 2.5 mg/kg/injection, schedule: Q01DX009 (ip), vehicle: saline 103 % of control | dose: 5.0 mg/kg/injection, schedule: Q01DX009 (ip), vehicle: saline 109 % of control | dose: 10.0 mg/kg/injection, schedule: Q01DX009 (ip), vehicle: saline 109 % of control

CN(C(=S)NNC(=O)C1CCC(=O)N1)c1ccccc1 (configuration not stated)
inactive: [11] 99 % of control | [12] 98 % of control | [13] 103 % of control

CCS(=O)(=O)c1ccc(N2C(N)=NC(N)=NC2(C)C)cc1
inactive: dose: 6.25 mg/kg/injection, schedule: Q01DX005 (ip), vehicle: saline with Tween-80 103 % of control | [15] 100 % of control | [14] 103 % of control

O=C(Nc1ccccc1)Oc1cccc(/C=N/S(=O)(=O)c2cccc([N+](=O)[O-])c2)c1
inactive: dose: 50.0 mg/kg/injection, schedule: Q01DX009 (ip), vehicle: saline with Tween-80 93 % of control | dose: 100.0 mg/kg/injection, schedule: Q01DX009 (ip), vehicle: saline with Tween-80 97 % of control | dose: 200.0 mg/kg/injection, schedule: Q01DX009 (ip), vehicle: saline with Tween-80 98 % of control

COc1cc(CCCNC(C)=O)cc(OC)c1OC
inactive: dose: 25.0 mg/kg/injection, schedule: Q01DX005 (ip), vehicle: water 105 % of control | dose: 50.0 mg/kg/injection, schedule: Q01DX005 (ip), vehicle: water 98 % of control | dose: 100.0 mg/kg/injection, schedule: Q01DX005 (ip), vehicle: water 96 % of control | dose: 200.0 mg/kg/injection, schedule: Q01DX005 (ip), vehicle: water 98 % of control

C(=C\c1ccnnc1)/c1ccccc1
inactive: [5] 97 % of control | [6] 106 % of control | [7] 101 % of control
